Measurements from PubChem BioAssay AID248 (DTP/NCI, 2004).
Where “and” joins values, the source holds several entries; their conditions need not be identical. Identical values can stand only once. Inconclusive results and toxic doses are left out. Cut-off read from the data, not from the text of the source: active = T/C of 150% or more; inactive = T/C below 125%.

Test system: L1210 leukemia ip in BDF1 mice, survival T/C
Assay: NCI In Vivo Anticancer Drug Screen. Data for tumor model L1210 Leukemia (intraperitoneal) in B6D2F1 (BDF1) mice
Conditions: endpoint: mean survival time, higher = longer survival
Summary of the method: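 Mice bearing the transplanted tumor received compound or vehicle. Survival of the treated group was divided by that of the vehicle-treated control group to give the ratio.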

[1] = dose: 100.0 mg/kg/injection, schedule: Q01DX001 (ip), vehicle: Klucel (hydroxypropylcellulose) (HPC)
[2] = dose: 200.0 mg/kg/injection, schedule: Q01DX001 (ip), vehicle: Klucel (hydroxypropylcellulose) (HPC)
[3] = dose: 25.0 mg/kg/injection, schedule: Q04DX002 (ip), vehicle: Klucel (hydroxypropylcellulose) (HPC)
[4] = dose: 50.0 mg/kg/injection, schedule: Q04DX002 (ip), vehicle: Klucel (hydroxypropylcellulose) (HPC)
[5] = dose: 100.0 mg/kg/injection, schedule: Q04DX002 (ip), vehicle: Klucel (hydroxypropylcellulose) (HPC)
[6] = dose: 200.0 mg/kg/injection, schedule: Q04DX002 (ip), vehicle: Klucel (hydroxypropylcellulose) (HPC)
[7] = dose: 400.0 mg/kg/injection, schedule: Q04DX002 (ip), vehicle: Klucel (hydroxypropylcellulose) (HPC)
[8] = dose: 100.0 mg/kg/injection, schedule: Q01DX009 (ip), vehicle: saline with Tween-80
[9] = dose: 100.0 mg/kg/injection, schedule: Q04DX003 (ip), vehicle: saline with Tween-80
[10] = dose: 200.0 mg/kg/injection, schedule: Q01DX009 (ip), vehicle: saline with Tween-80
[11] = dose: 200.0 mg/kg/injection, schedule: Q04DX003 (ip), vehicle: saline with Tween-80
[12] = dose: 100.0 mg/kg/injection, schedule: Q04DX003 (ip), vehicle: Klucel (hydroxypropylcellulose) (HPC)
[13] = dose: 200.0 mg/kg/injection, schedule: Q04DX003 (ip), vehicle: Klucel (hydroxypropylcellulose) (HPC)
[14] = dose: 400.0 mg/kg/injection, schedule: Q04DX003 (ip), vehicle: Klucel (hydroxypropylcellulose) (HPC)
[15] = dose: 50.0 mg/kg/injection, schedule: Q01DX001 (ip), vehicle: saline
[16] = dose: 100.0 mg/kg/injection, schedule: Q01DX001 (ip), vehicle: saline
[17] = dose: 200.0 mg/kg/injection, schedule: Q01DX001 (ip), vehicle: saline
[18] = dose: 100.0 mg/kg/injection, schedule: Q04DX003 (ip), vehicle: saline
[19] = dose: 200.0 mg/kg/injection, schedule: Q04DX003 (ip), vehicle: saline
[20] = dose: 400.0 mg/kg/injection, schedule: Q04DX003 (ip), vehicle: saline

Measured: T/C

O=c1[nH]c(/C=C/c2ccccc2)c(S(=O)(=O)N2CCCCC2)c(=O)[nH]1
inactive: [1] 93 % of control | [2] 87 % of control | dose: 400.0 mg/kg/injection, schedule: Q01DX001 (ip), vehicle: Klucel (hydroxypropylcellulose) (HPC) 93 % of control

Cc1cnnn1-c1cccc(C(F)(F)F)c1
inactive: [3] 92 % of control | [4] 92 % of control | [5] 99 % of control and 88 % of control

C[C@]12CCC(=O)C=C1CC[C@H]1[C@@H]3CCC(=O)O[C@@]3(C)CC(=O)[C@@]12F
inactive: dose: 100.0 mg/kg/injection, schedule: Q01DX001 (ip), vehicle: carboxymethylcellulose (CMC) 94 % of control | dose: 200.0 mg/kg/injection, schedule: Q01DX001 (ip), vehicle: carboxymethylcellulose (CMC) 100 % of control | dose: 400.0 mg/kg/injection, schedule: Q01DX001 (ip), vehicle: carboxymethylcellulose (CMC) 97 % of control

O=C(Nc1ccc(Br)cc1)c1nc(Br)[nH]c1Br
inactive: dose: 6.25 mg/kg/injection, schedule: Q01DX009 (ip), vehicle: saline with Tween-80 94 % of control | dose: 12.5 mg/kg/injection, schedule: Q01DX009 (ip), vehicle: saline with Tween-80 89 % of control | dose: 25.0 mg/kg/injection, schedule: Q01DX009 (ip), vehicle: saline with Tween-80 89 % of control

O=C(c1ccc(C(=O)Nc2cccc3ccccc23)c(C(=O)O)c1)c1ccc(C(=O)Nc2cccc3ccccc23)c(C(=O)O)c1
inactive: [5] 97 % of control | [6] 94 % of control | [7] 94 % of control

CN(C)C(=O)Sc1ccc2c(c1)CCC1C2CCC2(C)C(=O)CCC12 (stereo unspecified)
inactive: dose: 100.0 mg/kg/injection, schedule: Q01DX001 (ip), vehicle: gum acacia 101 % of control | dose: 200.0 mg/kg/injection, schedule: Q01DX001 (ip), vehicle: gum acacia 101 % of control | dose: 400.0 mg/kg/injection, schedule: Q01DX001 (ip), vehicle: gum acacia 97 % of control

Clc1nc2nc(C3CC3)[nH]c2nc1Cl
inactive: [8] 104 % of control | [9] 97 % of control | [10] 90 % of control | [11] 95 % of control | dose: 400.0 mg/kg/injection, schedule: Q01DX009 (ip), vehicle: saline with Tween-80 111 % of control | dose: 400.0 mg/kg/injection, schedule: Q04DX003 (ip), vehicle: saline with Tween-80 101 % of control

COc1cc(C=O)cc(OC)c1OC
inactive: [12] 93 % of control | [13] 93 % of control | [14] 87 % of control

COc1ccn(C2CCCO2)c(=O)n1 (stereo unspecified)
inactive: [15] 101 % of control | [16] 101 % of control | [17] 104 % of control | dose: 400.0 mg/kg/injection, schedule: Q01DX001 (ip), vehicle: saline 104 % of control

COC(=O)/C=C/c1ccc(OC)cc1
inactive: dose: 50.0 mg/kg/injection, schedule: Q01DX009 (ip), vehicle: Klucel (hydroxypropylcellulose) (HPC) 103 % of control | dose: 100.0 mg/kg/injection, schedule: Q01DX009 (ip), vehicle: Klucel (hydroxypropylcellulose) (HPC) 102 % of control | [12] 96 % of control | dose: 200.0 mg/kg/injection, schedule: Q01DX009 (ip), vehicle: Klucel (hydroxypropylcellulose) (HPC) 103 % of control | [13] 100 % of control | [14] 88 % of control

C[N+]1(Cc2ccccc2)CCC(=O)CC1
inactive: [15] 97 % of control | [16] 100 % of control | [17] 103 % of control

CC1N=C(c2ccccc2)C2(c3ccccc3)C(C)N12 (stereo unspecified)
inactive: [1] 97 % of control | [2] 94 % of control

CC(C)=CCn1c(=O)c2c(ncn2C)n(C)c1=O
inactive: [9] 98 % of control | [11] 98 % of control

c1cc2n(c1)Cc1cc3c(cc1NC2)OCO3
inactive: [3] 90 % of control | [4] 86 % of control | [5] 94 % of control

CC1Cn2ccc(=O)nc2S1 (stereo unspecified)
inactive: [15] 112 % of control | [16] 110 % of control | [17] 105 % of control

CS(=O)(=O)N(CC(=O)O)Cc1cccnc1
inactive: dose: 100.0 mg/kg/injection, schedule: Q01DX009 (ip), vehicle: other 101 % of control | dose: 100.0 mg/kg/injection, schedule: Q04DX003 (ip), vehicle: other 106 % of control | dose: 200.0 mg/kg/injection, schedule: Q01DX009 (ip), vehicle: other 101 % of control | dose: 200.0 mg/kg/injection, schedule: Q04DX003 (ip), vehicle: other 93 % of control | dose: 400.0 mg/kg/injection, schedule: Q01DX009 (ip), vehicle: other 105 % of control | dose: 400.0 mg/kg/injection, schedule: Q04DX003 (ip), vehicle: other 95 % of control

COC(=O)c1nc[nH]c1C(=O)OC
inactive: [18] 112 % of control | [19] 93 % of control | [20] 109 % of control

COc1cccc(/C=C/C(=O)C2CCCCC2)c1
inactive: dose: 50.0 mg/kg/injection, schedule: Q01DX009 (ip), vehicle: saline with Tween-80 101 % of control | [8] 97 % of control | [10] 101 % of control

COc1ccc(C(=O)Nc2ccc(F)cc2)cc1
inactive: dose: 100.0 mg/kg/injection, schedule: Q01DX009 (ip), vehicle: carboxymethylcellulose (CMC) 100 % of control and 105 % of control | [5] 115 % of control | dose: 100.0 mg/kg/injection, schedule: Q04DX002 (ip), vehicle: carboxymethylcellulose (CMC) 103 % of control | dose: 100.0 mg/kg/injection, schedule: Q04DX003 (ip), vehicle: carboxymethylcellulose (CMC) 101 % of control | dose: 200.0 mg/kg/injection, schedule: Q01DX009 (ip), vehicle: carboxymethylcellulose (CMC) 94 % of control and 89 % of control | [6] 102 % of control | dose: 200.0 mg/kg/injection, schedule: Q04DX002 (ip), vehicle: carboxymethylcellulose (CMC) 93 % of control and 95 % of control | dose: 200.0 mg/kg/injection, schedule: Q04DX003 (ip), vehicle: carboxymethylcellulose (CMC) 106 % of control | dose: 400.0 mg/kg/injection, schedule: Q01DX009 (ip), vehicle: carboxymethylcellulose (CMC) 87 % of control | [7] 108 % of control | dose: 400.0 mg/kg/injection, schedule: Q04DX002 (ip), vehicle: carboxymethylcellulose (CMC) 93 % of control and 100 % of control | dose: 400.0 mg/kg/injection, schedule: Q04DX003 (ip), vehicle: carboxymethylcellulose (CMC) 102 % of control

CCc1c(N)nc(N)[nH]c1=O
inactive: dose: 44.0 mg/kg/injection, schedule: Q01DX001 (ip), vehicle: Klucel (hydroxypropylcellulose) (HPC) 102 % of control | dose: 67.0 mg/kg/injection, schedule: Q01DX001 (ip), vehicle: Klucel (hydroxypropylcellulose) (HPC) 96 % of control | [1] 98 % of control | dose: 150.0 mg/kg/injection, schedule: Q01DX001 (ip), vehicle: Klucel (hydroxypropylcellulose) (HPC) 96 % of control | [2] 104 % of control

CC(C)(C)CC(C)(C)c1ccc(OCCOc2ccc(C(N)=O)cc2[N+](=O)[O-])cc1
inactive: [18] 94 % of control | [19] 105 % of control | [20] 97 % of control

CC(=O)N1CCCC2CCc3c([nH]c4ccccc34)C21 (stereo unspecified)
inactive: dose: 75.0 mg/kg/injection, schedule: Q01DX001 (ip), vehicle: other 110 % of control | dose: 150.0 mg/kg/injection, schedule: Q01DX001 (ip), vehicle: other 119 % of control | dose: 300.0 mg/kg/injection, schedule: Q01DX001 (ip), vehicle: other 110 % of control

[N-]=[N+]=Nc1ccc2[nH]c3ccccc3c(=O)c2c1
inactive: dose: 50.0 mg/kg/injection, schedule: Q01DX009 (ip), vehicle: saline 90 % of control | dose: 100.0 mg/kg/injection, schedule: Q01DX009 (ip), vehicle: saline 93 % of control | dose: 100.0 mg/kg/injection, schedule: Q04DX003 (ip), vehicle: acetone 92 % of control | dose: 200.0 mg/kg/injection, schedule: Q01DX009 (ip), vehicle: saline 95 % of control | dose: 200.0 mg/kg/injection, schedule: Q04DX003 (ip), vehicle: acetone 97 % of control | dose: 400.0 mg/kg/injection, schedule: Q04DX003 (ip), vehicle: acetone 97 % of control
